The source of these data is patent US20240262832A1, “SMALL MOLECULE MODULATORS OF GLUCOCEREBROSIDASE ACTIVITY AND USES THEREOF” (Vanqua Bio, Inc., priority 2021, published 2024).

As a reminder, the EC50 is the concentration that produces a half-maximal response. A high value points to weaker potency.

SMILES strings stand for the structures. A value given as a limit tells only on which side of the number the result lay.

The target of this assay is T1, GCase (Homo sapiens, UniProt P04062).
T1 construct: endogenous in cells; host or cells: HeLa cells
T1 sequence (P04062 40-536): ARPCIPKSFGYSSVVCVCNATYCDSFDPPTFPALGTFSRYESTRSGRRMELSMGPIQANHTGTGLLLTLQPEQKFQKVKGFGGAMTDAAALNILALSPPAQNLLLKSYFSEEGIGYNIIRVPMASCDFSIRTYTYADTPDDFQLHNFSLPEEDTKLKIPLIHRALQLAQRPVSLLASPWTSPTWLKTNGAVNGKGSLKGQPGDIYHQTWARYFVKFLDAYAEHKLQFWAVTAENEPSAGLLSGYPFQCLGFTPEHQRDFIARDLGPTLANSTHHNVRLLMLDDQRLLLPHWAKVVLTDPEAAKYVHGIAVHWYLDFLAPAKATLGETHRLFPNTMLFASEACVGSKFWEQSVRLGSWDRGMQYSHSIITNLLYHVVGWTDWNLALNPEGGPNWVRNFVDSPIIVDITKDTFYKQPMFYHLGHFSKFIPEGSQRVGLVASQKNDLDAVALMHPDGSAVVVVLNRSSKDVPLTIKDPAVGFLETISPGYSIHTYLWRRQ
Kind of assay: activation of GCase in a live cell PFB assay in HELA cells. The format is cell-based.
`O=C(Cc1csc(-c2ccccc2)n1)N1CCC(COCc2ccccc2)CC1` [Compound 335, 1-{4-[(Benzyloxy)methyl]piperidin-1-yl}-2-(2-phenyl-1,3-thiazol-4-yl)ethan-1-one] returned an EC50 of 10 to 50 µM.

Take `c1ccc(OCC2CCN(c3cnc4ccccc4n3)CC2)cc1` [Compound 418, 2-[4-(Phenoxymethyl)piperidin-1-yl]quinoxaline]: the EC50 was in the range of 10 to 50 µM.

The molecule `COc1ccc(OCC2CCN(c3nccnc3N(C)C)CC2)cc1` [Compound 441] had an EC50 greater than 100 µM.

On to `O=C(Cc1csc(-c2ccccc2)n1)N1CCC(Oc2cccnc2C(F)(F)F)CC1` [Compound 400, 2-(2-Phenyl-1,3-thiazol-4-yl)-1-(4-{[2-(trifluoromethyl)pyridin-3-yl]oxy}piperidin-1-yl)ethan-1-one], for which the EC50 lay in the range of 10 to 50 µM.

The molecule `O=C(c1ncc(Cl)s1)N1CCCC(COc2ccccc2)C1` (centres unmarked) [Compound 137] registered an EC50 greater than 100 µM.

In turn, `CC(CSC(F)(F)F)C(=O)N1CCCC(COc2ccccc2)C1` (centres unmarked) [Compound 133] gave a concentration giving a half-maximal response (EC50) greater than 100 µM.

Consider `CCc1cnc(C)nc1N1CCC(COc2ccc(OC)cc2)CC1` [Compound 475], for which the EC50 is 10 to 50 µM.

`O=C(N1CCCC(COc2ccccc2)C1)C12CCC(C(F)F)(CC1)C2` (centres unmarked) [Compound 10] showed an EC50 of 10 to 50 µM.

Turning to `O=C(Cc1csc(-c2ccccc2)n1)N1CCC(Oc2ncccc2C(F)(F)F)CC1` [Compound 401, 2-(2-Phenyl-1,3-thiazol-4-yl)-1-(4-{[3-(trifluoromethyl)pyridin-2-yl]oxy}piperidin-1-yl)ethan-1-one], the concentration giving a half-maximal response (EC50) fell in the range of 10 to 50 µM.

Regarding `FC(F)Cn1ncc2ncc(N3C[C@H](COc4cccnc4C(F)(F)F)C[C@@H](OC(F)F)C3)nc21` [Compound 299b, 1-(2,2-Difluoroethyl)-6-((3R,5R)-3-(difluoromethoxy)-5-(((2-(trifluoromethyl)pyridin-3-yl)oxy)methyl)piperidin-1-yl)-1H-pyrazolo[3,4-b]pyrazine], the EC50 was less than 10 µM.

For `O=C(c1ccc2cc[nH]c2c1)N1CCC(OCc2ccccc2)CC1` [Compound 415, 6-[4-(Benzyloxy)piperidine-1-carbonyl]-1H-indole], the EC50 lay in the range of 50 to 100 µM.

On to `O=C(N1CCCC(COc2ncccc2C(F)(F)F)C1)N1CCOC(Cc2ccccc2)C1` (centres unmarked) [Compound 258, (2-Benzylmorpholino)(3-(((3-(trifluoromethyl)pyridin-2-yl)oxy)methyl)piperidin-1-yl)methanone], for which the EC50 is 50 to 100 µM.

`C[C@@H]1C[C@H](COc2cccnc2C(F)(F)F)CN(c2cnc3cnn(CC(F)F)c3n2)C1` [Compound 94, 1-(2,2-Difluoroethyl)-6-((3R,5S)-3-methyl-5-(((2-(trifluoromethyl)pyridin-3-yl)oxy)methyl)piperidin-1-yl)-1H-pyrazolo[3,4-b]pyrazine] displayed an EC50 of less than 10 µM.

In turn, `O=C(CC12CCC(CC1)C2)N1CCCC(COc2ccccc2)C1` (centres unmarked) [Compound 213] had a concentration giving a half-maximal response (EC50) of 10 to 50 µM.

Regarding `O=C(N1CCCC(COc2ccccc2)C1)C1(c2cnc(-c3ccccc3)s2)CCOCC1` (centres unmarked) [Compound 279, (3-(Phenoxymethyl)piperidin-1-yl)(4-(2-phenylthiazol-5-yl)tetrahydro-2H-pyran-4-yl)methanone], the EC50 was less than 10 µM.

Molecule `O=C(C(c1ccccc1)c1ccccc1)N1CCC(Oc2ccc(C(F)(F)F)cn2)CC1` [Compound 387] yielded an EC50 of 10 to 50 µM.

As for `NCCn1cc(C(=O)N2CCC(COc3ccc4c(c3)CCC4)CC2)nn1` [Compound 440], the concentration giving a half-maximal response (EC50) was greater than 100 µM.

Consider `COc1ccc(OCC2CCN(Cc3ccc(CO)o3)CC2)cc1` [Compound 448], for which the EC50 was in the range of 10 to 50 µM.

Molecule `COc1ccc(OCC2CCN(C(=O)c3ccc(C#CC(C)(C)O)o3)CC2)cc1` [Compound 433] registered an EC50 of 10 to 50 µM.

Consider `O=C(c1ccc2cc[nH]c2c1)N1CC2CC2(COc2cccnc2C(F)(F)F)C1` (centres unmarked) [Compound 261, 6-[1-({[2-(Trifluoromethyl)pyridin-3-yl]oxy}methyl)-3-azabicyclo[3.1.0]hexane-3-carbonyl]-1H-indole], for which the EC50 was greater than 100 µM.

`CC(Oc1cccnc1C(F)(F)F)C1CCCN(c2cnc3cnn(CC(F)F)c3n2)C1` (centres unmarked) [Compound 26, 1-(2,2-Difluoroethyl)-6-(3-(1-((2-(trifluoromethyl)pyridin-3-yl)oxy)ethyl)piperidin-1-yl)-1H-pyrazolo[3,4-b]pyrazine] showed an EC50 of less than 10 µM.

`CCN1CCC(NC(=O)N2CCC(COc3ccc(OC)cc3)CC2)C1` (centres unmarked) [Compound 434] showed an EC50 greater than 100 µM.

The molecule `CC(C)c1cc(C(=O)N2CCCC(COc3ccccc3)C2)c(C(C)C)o1` (centres unmarked) [Compound 207] yielded an EC50 of less than 10 µM.

In turn, `CCn1c(-c2nncs2)nc2ncc(N3CCCC(COc4ccccc4C)C3)nc21` (centres unmarked) [Compound 30, 2-(1-Ethyl-6-(3-((o-tolyloxy)methyl)piperidin-1-yl)-1H-imidazo[4,5-b]pyrazin-2-yl)-1,3,4-thiadiazole] had an EC50 greater than 100 µM.

Turning to `C[C@H]1CC[C@@H](COc2cccnc2C(F)(F)F)CN1c1cnc2cnn(CC(F)F)c2n1` [Compound 77, 1-(2,2-Difluoroethyl)-6-((2S,5R)-2-methyl-5-(((2-(trifluoromethyl)pyridin-3-yl)oxy)methyl)piperidin-1-yl)-1H-pyrazolo[3,4-b]pyrazine], the EC50 was less than 10 µM.

In turn, `C[C@@H]1CC[C@H](COc2cncc(C(F)(F)F)c2)CN1c1cnc2cnn(CC(F)F)c2n1` [Compound 273, 1-(2,2-Difluoroethyl)-6-((2R,5S)-2-methyl-5-(((5-(trifluoromethyl)pyridin-3-yl)oxy)methyl)piperidin-1-yl)-1H-pyrazolo[3,4-b]pyrazine] showed an EC50 of 10 to 50 µM.

`O=C(C1C[C@@H]2C[C@@H](C1)CC(F)(F)C2)N1CCCC(COc2ccccc2)C1` (some centres unmarked) [Compound 151] displayed an EC50 of 10 to 50 µM.

`COc1ccc(OCC2CCN(c3nnc(N)s3)CC2)cc1` [Compound 429] registered an EC50 greater than 100 µM.

Molecule `Cc1cnc2c(C(=O)N3CCCC(COc4ccccc4C)C3)c(-c3ccccc3)n(C)c2n1` (centres unmarked) [Compound 257, (3,5-Dimethyl-6-phenyl-5H-pyrrolo[2,3-b]pyrazin-7-yl)(3-((o-tolyloxy)methyl)piperidin-1-yl)methanone] had an EC50 of 50 to 100 µM.

In turn, `COc1ccc(OCC2CCN(Cc3ccncc3C)CC2)cc1` [Compound 445] yielded an EC50 greater than 100 µM.

The molecule `Cc1cccc2cc(C(=O)N3CCC(Oc4ccccc4)CC3)oc12` [Compound 409, 1-(7-Methyl-1-benzofuran-2-carbonyl)-4-phenoxypiperidine] registered an EC50 of 10 to 50 µM.

In turn, `C[C@H](Oc1ccccc1C(F)(F)F)[C@@H]1CCCN(c2cnc3cnn(CC(F)F)c3n2)C1` [Compound 266b, 1-(2,2-difluoroethyl)-6-((R)-3-((S)-1-(2-(trifluoromethyl)phenoxy)ethyl)piperidin-1-yl)-1H-pyrazolo[3,4-b]pyrazine] registered an EC50 of 10 to 50 µM.

For the molecule `CC(C)c1cc(C(=O)N2CC(COc3cccnc3C(F)(F)F)CCC2C)[nH]n1` (centres unmarked) [Compound 231, (3-isopropyl-1H-pyrazol-5-yl)(2-methyl-5-(((2-(trifluoromethyl)pyridin-3-yl)oxy)methyl)piperidin-1-yl)methanone], the EC50 is less than 10 µM.

As to `FC(F)Cn1ncc2ncc(N3CC4CC4(COc4cccc(C(F)(F)F)n4)C3)nc21` (centres unmarked) [Compound 284, 3-[1-(2,2-Difluoroethyl)-1H-Pyrazolo[3,4-b]Pyrazin-6-Yl]-1-({[6-(Trifluoromethyl)Pyridin-2-Yl]Oxy}Methyl)-3-Azabicyclo[3.1.0]Hexane], the concentration giving a half-maximal response (EC50) fell in the range of 10 to 50 µM.

In the case of `FC(F)Cn1ncc2ncc(N3CCCC(COc4nccnc4Cl)C3)nc21` (centres unmarked) [Compound 69, 6-(3-(((3-Chloropyrazin-2-yl)oxy)methyl)piperidin-1-yl)-1-(2,2-difluoroethyl)-1H-pyrazolo[3,4-b]pyrazine], the EC50 was greater than 100 µM.

Molecule `COc1ccc(OCC2CCN(C(=O)c3cccc(NC(=O)C(C)C)c3)CC2)cc1` [Compound 446] showed an EC50 of 10 to 50 µM.

The molecule `CC(C)c1cc(C(=O)N2C[C@@H]3[C@@H](COc4cccc(C(F)(F)F)n4)[C@@H]3C2)[nH]n1` [Compound 75, (1R,5S,6S)-3-[3-(Propan-2-yl)-1H-pyrazole-5-carbonyl]-6-({[6-(trifluoromethyl)pyridin-2-yl]oxy}methyl)-3-azabicyclo[3.1.0]hexane] returned an EC50 of 10 to 50 µM.

Take `O=C(c1ccc(Cn2cccn2)o1)N1CCC(OCc2ccccc2)CC1` [Compound 449]: the EC50 was greater than 100 µM.

Molecule `Cc1ccccc1OCC1CCCN(c2cnc3cnn(-c4nncs4)c3n2)C1` (centres unmarked) [Compound 23, 2-(6-(3-((o-Tolyloxy)methyl)piperidin-1-yl)-1H-pyrazolo[3,4-b]pyrazin-1-yl)-1,3,4-thiadiazole] displayed an EC50 of 10 to 50 µM.

As for `Fc1nccc(OC[C@@H]2[C@H]3CN(c4cnc5cnn(C6COC6)c5n4)C[C@@H]23)c1F` [Compound 228], the EC50 lay within 10 to 50 µM.

Molecule `CCCc1[nH]ncc1C(=O)N1CCC(OCc2ccccc2)CC1` [Compound 465] returned an EC50 of 50 to 100 µM.

The molecule `Cc1ccccc1OCC1CCCN(C(=O)c2c(C3CC3)n(-c3ccccc3)c3nccnc23)C1` (centres unmarked) [Compound 255, (6-cyclopropyl-5-phenyl-5H-pyrrolo[2,3-b]pyrazin-7-yl)(3-((o-tolyloxy)methyl)piperidin-1-yl)methanone] came in with an EC50 of 10 to 50 µM.

`COC1(C(=O)N2CCCC(COc3ccccc3)C2)CCCCCCC1` (centres unmarked) [Compound 176] came in with a concentration giving a half-maximal response (EC50) of 10 to 50 µM.

The molecule `O=C(c1cc(=O)c2cc(Cl)ccc2o1)N1CCCC(COc2ccccc2)C1` (centres unmarked) [Compound 8] displayed a concentration giving a half-maximal response (EC50) of 10 to 50 µM.
